From patent publication US10973863B2, “Method for regulating, preventing and/or treating pulmonary injury” (SINPHAR PHARMACEUTICAL CO., LTD., priority 2017, dated 2021) come the findings set out here.

The structures appear in SMILES notation.

For the assay, the system named is MMP-9. The experiment in a line: Gelatin zymography: LPS-activated active expression of MMP-9 in NR8383 cells. The settings on record: Table 5, LPS 1 μg/mL, 24 hours. It is filed as cell-based, rat. An excerpt:
As indicated above, when an inflammatory response occurs in animal's pulmonary tissue, the active inflammatory cells will secret MMPs that will destroy the pulmonary tissue structure, cause more serious pulmonary injury, and lead to the decrement in or the loss of pulmonary functions. […]
Thereafter, the medium of each group was collected and respectively subjected to the following procedures. A 10% polyacrylamide gel containing 0.2% gelatin was used to carry out the sodium dodecyl sulfate polyacrylamide gel electrophoresis (SDS-PAGE). After the electrophoresis was completed, the gel was sequentially soaked in 2.5% Triton X-100 solution for 90 minutes to remove SDS, soaked in distillation-distillation water (ddH2O) for 30 minutes, and placed in a reaction solution (50 mM Tris-HCl buffer containing 10 mM CaCl2 and 0.02% NaN3) at a temperature of 37° C. for 18 hours. After the foregoing reaction was completed, the gel was stained by a Coomassie blue staining solution, and the image of stained gel was taken and subjected to an image analysis. The image intensity (the image intensity was calculated based on the size of area and the shade of color) of highlight band (i.e., the gelatin in this area was degraded by MMPs, wherein the area locating around 95 kD molecular weight) on the gel of each group can reflect the active expression of MMP-9 of rat alveolar macrophage NR8383 cells under different conditions (the relative active expression of MMP-9 was calculated by serving the results of the blank group as 0% and serving that of the control group as 100%).
Rat alveolar macrophage NR8383 cells were divided into twenty-eight groups and separately cultivated with the following media for 24 hours: • (1) Blank group: a macrophage growth medium; • (2) Control group: a macrophage growth medium containing 1 μg/mL LPS; • (3) Positive control group: a macrophage growth medium containing 1 μg/mL LPS and 5 μM Prednisolone (a type of corticosteroid; abbreviated as “Pred”; purchased from Sigma-Aldrich); • (4) Extract C (including five sub-groups): a macrophage growth medium containing 1 μg/mL LPS and the extract C provided by [preparation example A-3-2], wherein the extract C is present in the five sub-groups at a concentration of […] respectively; • (5) Extract D (including five sub-groups): a macrophage growth medium containing 1 μg/mL UPS and the extract D provided by [preparation example A-4-2], wherein the extract D is present in the five sub-groups at a concentration of 0.78, 1.56, 3.13, 6.25 and 12.5 respectively; • (6) Extract E (including five sub-groups): a macrophage growth medium containing 1 μg/mL LPS and the extract E provided from [preparation example A-4-3], wherein the extract E is present in the five sub-groups at a concentration of 0.78, 1.56, 3.13, […], and 12.5 respectively; • (7) DATA group (including five sub-groups): a macrophage growth medium containing 1 μg/mL LPS and the dehydrotrametenolic acid (DTTA) provided by [preparation example C-1], wherein the dehydrotrametenolic acid (DTTA) is present in the five sub-groups at a concentration of 0.39, 0.78, 1.56, 3.13 and 6.25 μg/mL respectively; and • (8) PAA group (including live sub-groups): a macrophage growth medium containing 1 μg/mL LPS and the poricoic acid A (PAA) provided from [preparation example C-1], wherein the poricoic acid A (PAA) is present in the five sub-groups at a concentration of 6.25, 12.5, 25, 50 and 100 respectively.
Thereafter, the medium of each group was collected and analyzed by the analyzing procedures same as that of (1-1).

On to `C=C(CC[C@@H](C(=O)O)[C@H]1[C@H](O)C[C@@]2(C)C3=CC[C@@H](C(=C)C)[C@](C)(CCC(=O)O)C3=CC[C@]12C)C(C)C` [PAA, poricoic acid A], for which the “Relative active expression of MMP-9 (%)” value is, setting by setting: (6.25 μg/mL) 82%; (12.5 μg/mL) 77%; (25 μg/mL) 60%; (50 μg/mL) 35%; (100 μg/mL) 18%.
